Values of other authors as cited in patent US20020068684A1, “Stripping and cleaning compositions” (priority 1999, published 2002).

Settings: from CRC tables

Oc1ccccc1O [Catechol]
PKa: 9.85
